Laboratory results reported in patent US20160297830A1, “NOVEL COMPOUNDS USEFUL FOR THE TREATMENT OF BACTERIAL INFECTIOUS DISEASES” (GALAPAGOS NV, priority 2013, published 2016).
pIC50: −log10 of the molar value. In brackets after ≈: the same amount, converted by molar mass. Where two headings read alike, the source gives them in different places.

Key:
S. aureus Sa1 ATCC 13709 = assay: microbe, parasite or virus in culture; assay type: cell-based; conditions: Staphylococcus aureus, ATCC13709, read-out: MIC Sa1
[1] = test system: S. aureus Sa26 ATCC 25923; assay: Antibacterial activity assay (MIC), S. aureus Sa26; assay type: cell-based; conditions: Staphylococcus aureus
S. aureus Sa4 NCTC 6571 = assay: Antibacterial activity assay (MIC), S. aureus Sa4; assay type: cell-based; conditions: Staphylococcus aureus, NCTC6571, read-out: MIC Sa4
[2] = test system: S. aureus Sa2 clinical strain NCIMB 41953, MRSA; assay: microbe, parasite or virus in culture; assay type: cell-based; conditions: Staphylococcus aureus, read-out: MIC Sa2
[3] = test system: H. influenza Hi3 ATCC 31517; assay: organism not typed; assay type: cell-based; conditions: read-out: MIC Hi3
[4] = test system: H. influenza Hi10 clinical strain; assay: organism not typed; assay type: cell-based; conditions: read-out: MIC Hi10
[5] = test system: H. influenza Hi47 clinical strain, Ampicillin Resistant; assay: organism not typed; assay type: cell-based; conditions: read-out: MIC Hi47
[6] = test system: H. influenza Hi106 ATCC 51907; assay: organism not typed; assay type: cell-based; conditions: read-out: MIC Hi106
E. coli Ec1 ATCC 25922 = assay: Antibacterial activity assay (MIC), E. coli Ec1; assay type: cell-based; conditions: Escherichia coli, ATCC25922, read-out: MIC Ec1
[7] = test system: E. coli Ec50 efflux pump KO; assay: microbe, parasite or virus in culture; assay type: cell-based; conditions: Escherichia coli, read-out: MIC Ec50 efflux pump KO
[8] = test system: E. coli Ec113 efflux pump KO; assay: microbe, parasite or virus in culture; assay type: cell-based; conditions: Escherichia coli, read-out: MIC Ec113 efflux pump KO
[9] = biological target: DNA Polymerase IIIα (DnaE) from Staphylococcus aureus (Staphylococcus aureus, UniProt Q6GG04); assay: biochemical
DNA III Polymerase E = DNA III Polymerase E (Escherichia coli, UniProt P10443); assay: In vitro activity against DNA III Polymerase E, E. coli; assay type: biochemical; conditions: DNA polymerase III, E. coli; read-out: IC50 semiquantitative scoring, E. coli
In short: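 Recombinant enzyme (0.47 μg/mL diluted stock) in 20 mM Tris pH7.5, 8 mM DTT, 10 mM MgOAc, 0.05% CHAPS met compound series from 100 μM top, 1/5 steps. Activated calf thymus DNA, dNTPs and [α-33P]-dTTP substrate were added, and incubation ran 120 min at 30° C. IC50 came from filter-captured incorporated radioactivity versus controls.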

[10] = test system: Methicillin Resistant S. aureus Sa2 (MRSA); assay: animal or person; assay type: in vivo; conditions: lung
[11] = test system: Methicillin Resistant S. aureus Sa2 (MRSA); assay type: in vivo; conditions: Groin Sa, Study 2; 50 mg/kg PO BID; sample time 31 h post infection
[12] = test system: Methicillin Resistant S. aureus (MRSA); assay: Neutropenic mouse thigh infection model; conditions: Thigh Sa
[13] = Study 2, 50 mg/kg IP BID, sample time 7 h PI
[14] = Study 4, 5 mg/kg IP BID, sample time 24 h PI
[15] = Study 4, 15 mg/kg IP BID, sample time 24 h PI
[16] = Study 4, 50 mg/kg IP BID, sample time 24 h PI
[17] = Study 5, 5 mg/kg IV BID, sample time 24 h PI
[18] = Study 6, 25 mg/kg IV BID, sample time 24 h PI
[19] = Study 7, 15 mg/kg PO BID, sample time 24 h PI
[20] = Study 7, 50 mg/kg PO BID, sample time 24 h PI
[21] = Study 8, 50 mg/kg PO QD, sample time 48 h PI

Chain of DNA III Polymerase E (P10443 whole entry): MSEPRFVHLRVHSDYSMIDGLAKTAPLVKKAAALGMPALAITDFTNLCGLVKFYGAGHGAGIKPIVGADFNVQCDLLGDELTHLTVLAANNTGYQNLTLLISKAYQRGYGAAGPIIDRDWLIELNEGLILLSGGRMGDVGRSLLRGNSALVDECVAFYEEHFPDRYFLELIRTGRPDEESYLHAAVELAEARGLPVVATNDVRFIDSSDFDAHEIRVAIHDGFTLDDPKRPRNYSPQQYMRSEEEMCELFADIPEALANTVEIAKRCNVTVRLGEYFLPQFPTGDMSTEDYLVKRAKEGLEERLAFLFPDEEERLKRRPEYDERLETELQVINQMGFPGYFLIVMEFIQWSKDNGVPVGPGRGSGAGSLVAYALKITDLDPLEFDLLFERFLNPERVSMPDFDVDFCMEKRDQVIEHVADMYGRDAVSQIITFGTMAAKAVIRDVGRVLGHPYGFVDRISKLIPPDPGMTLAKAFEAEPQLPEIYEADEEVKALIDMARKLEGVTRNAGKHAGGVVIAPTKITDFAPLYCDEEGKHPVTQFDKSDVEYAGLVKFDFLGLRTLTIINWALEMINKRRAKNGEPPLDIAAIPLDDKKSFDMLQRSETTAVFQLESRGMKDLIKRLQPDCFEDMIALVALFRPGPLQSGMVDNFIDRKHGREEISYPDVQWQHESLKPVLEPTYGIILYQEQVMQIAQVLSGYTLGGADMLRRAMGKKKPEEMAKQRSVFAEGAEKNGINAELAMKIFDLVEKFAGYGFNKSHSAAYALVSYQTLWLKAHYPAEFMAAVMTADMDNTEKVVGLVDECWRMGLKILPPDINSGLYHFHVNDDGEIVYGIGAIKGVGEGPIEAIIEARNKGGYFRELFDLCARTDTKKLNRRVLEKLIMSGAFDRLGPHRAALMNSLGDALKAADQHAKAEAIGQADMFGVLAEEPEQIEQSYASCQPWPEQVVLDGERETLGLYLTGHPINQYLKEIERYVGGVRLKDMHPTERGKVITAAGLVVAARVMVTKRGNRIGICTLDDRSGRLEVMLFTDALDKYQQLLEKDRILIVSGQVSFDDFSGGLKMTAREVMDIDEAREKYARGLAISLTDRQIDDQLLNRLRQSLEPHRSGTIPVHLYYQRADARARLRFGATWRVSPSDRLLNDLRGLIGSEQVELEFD
Chain of DNA Polymerase IIIα (DnaE) from Staphylococcus aureus (Q6GG04 1-1022): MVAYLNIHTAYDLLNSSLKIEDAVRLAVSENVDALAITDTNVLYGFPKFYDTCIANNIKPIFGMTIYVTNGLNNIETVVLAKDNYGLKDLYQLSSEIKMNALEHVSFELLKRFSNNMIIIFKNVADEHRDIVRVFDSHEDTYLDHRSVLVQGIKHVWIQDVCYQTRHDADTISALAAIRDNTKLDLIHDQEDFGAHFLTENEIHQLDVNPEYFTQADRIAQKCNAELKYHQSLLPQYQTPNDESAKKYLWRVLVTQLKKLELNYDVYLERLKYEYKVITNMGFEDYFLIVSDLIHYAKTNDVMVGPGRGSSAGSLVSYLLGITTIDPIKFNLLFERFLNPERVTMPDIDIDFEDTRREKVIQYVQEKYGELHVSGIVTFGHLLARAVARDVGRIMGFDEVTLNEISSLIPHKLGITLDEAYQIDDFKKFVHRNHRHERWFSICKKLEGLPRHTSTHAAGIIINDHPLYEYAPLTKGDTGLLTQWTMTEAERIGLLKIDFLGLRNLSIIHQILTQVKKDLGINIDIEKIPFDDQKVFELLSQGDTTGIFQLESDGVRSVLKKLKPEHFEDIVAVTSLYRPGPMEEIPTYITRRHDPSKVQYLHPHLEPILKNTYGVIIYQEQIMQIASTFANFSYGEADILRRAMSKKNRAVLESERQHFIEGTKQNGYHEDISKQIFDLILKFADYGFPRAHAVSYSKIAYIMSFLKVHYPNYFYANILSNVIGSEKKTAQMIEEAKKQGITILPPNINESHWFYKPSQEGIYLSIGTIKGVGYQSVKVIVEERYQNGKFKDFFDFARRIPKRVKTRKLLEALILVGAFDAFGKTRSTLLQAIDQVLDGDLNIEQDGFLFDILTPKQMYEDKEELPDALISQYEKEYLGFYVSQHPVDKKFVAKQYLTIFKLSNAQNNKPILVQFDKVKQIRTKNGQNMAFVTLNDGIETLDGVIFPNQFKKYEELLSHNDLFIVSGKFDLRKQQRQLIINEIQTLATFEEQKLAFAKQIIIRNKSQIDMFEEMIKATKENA

## COC[C@@H]1[C@@H](O)[C@@H]2[C@H]3C=C[C@@H]4[C@@H](COC)C(=O)O[C@H]([C@H](O)COC)[C@H](C)/C=C(\C)[C@@]24O[C@H]3[C@@H]1OC(=O)c1ccc[nH]1 [Compound 2, 8-O-1H-pyrrole-2′-carbonylbranimycin]
S. aureus Sa1 ATCC 13709
  MIC: 1 µg/mL (≈ 1.74 µM)
[1]; ATCC25923, read-out: MIC Sa26
  MIC: 1 µg/mL (≈ 1.74 µM)
[1]; ATCC25923, read-out: MIC Sa26 + 10% SH
  MIC: 1 µg/mL
[1]; ATCC25923, read-out: MIC Sa26 + 50% SH
  MIC: 2 µg/mL
S. aureus Sa4 NCTC 6571
  MIC: 1 µg/mL (≈ 1.74 µM)
[2]
  MIC: 0.5 µg/mL (≈ 0.869 µM)
[3]
  MIC: > 64 µg/mL
[4]
  MIC: > 64 µg/mL
[5]
  MIC: > 64 µg/mL
[6]
  MIC: > 64 µg/mL
E. coli Ec1 ATCC 25922
  MIC: > 64 µg/mL
[7]
  MIC: 16 µg/mL (≈ 27.8 µM)
[8]
  MIC: 1 µg/mL (≈ 1.74 µM)
[9]
  pIC50: 5.76 to 8.76
DNA III Polymerase E
  pIC50: 4.76 to 5.76
[10]; Staphylococcus aureus, MRSA, in Mus musculus, po, 24 h, read-out: Log reduction vs. untreated, Study 1, 50 mg/kg PO BID, sample 24 h post infection
  log reduction at 50 mg/kg: 3.36
[10]; Staphylococcus aureus, MRSA, in Mus musculus, po, 24 h, read-out: Log reduction vs. untreated, Study 2, 15 mg/kg PO BID, sample 24 h post infection
  log reduction at 15 mg/kg: 3.91
[10]; Staphylococcus aureus, MRSA, in Mus musculus, po, 24 h, read-out: Log reduction vs. untreated, Study 2, 50 mg/kg PO BID, sample 24 h post infection
  log reduction at 50 mg/kg: 2.99
[10]; Staphylococcus aureus, MRSA, in Mus musculus, po, 24 h, read-out: Log reduction vs. untreated, Study 4, 6.25 mg/kg PO BID, sample 24 h post infection
  log reduction at 6.25 mg/kg: 0.04
[10]; Staphylococcus aureus, MRSA, in Mus musculus, po, 24 h, read-out: Log reduction vs. untreated, Study 4, 12.5 mg/kg PO BID, sample 24 h post infection
  log reduction at 12.5 mg/kg: 1.9
[10]; Staphylococcus aureus, MRSA, in Mus musculus, po, 24 h, read-out: Log reduction vs. untreated, Study 4, 25 mg/kg PO BID, sample 24 h post infection
  log reduction at 25 mg/kg: 3.48
[10]; Staphylococcus aureus, MRSA, in Mus musculus, po, 72 h, read-out: Log reduction vs. untreated, Study 5, 5 mg/kg PO QD, sample 72 h post infection
  log reduction at 5 mg/kg: 1.57
[10]; Staphylococcus aureus, MRSA, in Mus musculus, po, 72 h, read-out: Log reduction vs. untreated, Study 5, 15 mg/kg PO QD, sample 72 h post infection
  log reduction at 15 mg/kg: 3.62
[10]; Staphylococcus aureus, MRSA, in Mus musculus, po, 72 h, read-out: Log reduction vs. untreated, Study 6, 25 mg/kg PO QD, sample 72 h post infection
  log reduction at 25 mg/kg: 3.65
[10]; Study 1, 50 mg/kg PO BID, sample 24 h post infection
  Active: Y
[10]; Study 2, 15 mg/kg PO BID, sample 24 h post infection
  Active: Y
[10]; Study 2, 50 mg/kg PO BID, sample 24 h post infection
  Active: Y
[10]; Study 4, 6.25 mg/kg PO BID, sample 24 h post infection
  Active: N
[10]; Study 4, 12.5 mg/kg PO BID, sample 24 h post infection
  Active: Y
[10]; Study 4, 25 mg/kg PO BID, sample 24 h post infection
  Active: Y
[10]; Study 5, 5 mg/kg PO QD, sample 72 h post infection
  Active: Y
[10]; Study 5, 15 mg/kg PO QD, sample 72 h post infection
  Active: Y
[10]; Study 6, 25 mg/kg PO QD, sample 72 h post infection
  Active: Y
[11]
  Active: Y
  Log reduction vs. untreated: −2.52
[12]; [13]
  Active: Y
  Log reduction vs. untreated: −3.55
[12]; [14]
  Active: N
  Log reduction vs. untreated: −1.16
[12]; [15]
  Active: Y
  Log reduction vs. untreated: −3.32
[12]; [16]
  Active: Y
  Log reduction vs. untreated: −4.74
[12]; [17]
  Active: N
  Log reduction vs. untreated: −0.13
[12]; [18]
  Active: Y
  Log reduction vs. untreated: −3.92
[12]; [19]
  Active: Y
  Log reduction vs. untreated: −4.13
[12]; [20]
  Active: Y
  Log reduction vs. untreated: −6.72
[12]; [21]
  Active: Y
  Log reduction vs. untreated: −4.63
